# Values of other authors as cited in patent US20250177336A1 (RX BANDZ, INC., priority 2023, published 2025).
# Conditions: zwitterionic form predominates
structure (smiles),measurement,value
"NC[C@H]1CC[C@H](C(=O)O)CC1 [TXA, Tranexamic acid]",isoelectric point,~7.3 pH
